Reference: patent US5200393A, “Lipid excipient for nasal delivery and topical application” (The Liposome Company, Inc., priority 1991, dated 1993)

Key:
[1] = Nasal delivery of calcitonin in MOPE excipient to rats, serum calcium; format: in vivo, rat; conditions: MOPE used as the excipient delivery vehicle; FIG. 1; change in serum calcium after one and three hours
Description: Eight Wistar Kyoto male rats, weighing 250-300 g were anesthetized with a 20% solution of urethane administered in a divided dose of 1/6 g/kg, administered intraperitoneally (IP).
The rats were surgically prepared for nasal sample instillation according to the Harai method (Hussain et al., 19800, J. Pharm. Sci., 69(12):1411-1413. A pre-drug blood sample was taken from each rat (1.0 ml drawn from retroorbital site) and allowed to clot, and the serum separated by standard technique.
The calcitonin-MOPE solution (single 50 uL doses per rate) were administered by inserting a syringe containing the sample into the rats nostril, and injecting. A blood sample was obtained from each rat after one and three hours, and assayed for serum calcium.
Serum calcium was determined colorimetrically by the Sigma Diagnostics Calcium Kit No. 587 (Sigma, St. Louis, Mo.). The change in serum calcium levels compared to pre-drug controls was plotted as a function of time. (FIG. 1)

[2] = Nasal delivery of insulin in MOPE excipient to diabetic rats, serum insulin radioimmunoassay; format: in vivo, rat
Description: The insulin-MOPE solution of Example 4 was instilled into the nasal cavity of rats according to the methods of Example 3. Right Sprague-Dawley male 300 g rats which had been made diabetic according to the methods of Weiner et al., 1985, J. Pharm. Sci., 74:922-925 were used. Blood samples were collected after one hour and serum separated according to standard methods as in Example 3. The serum was analyzed for insulin using the Coat-A-CountInsulin ^125 I radioimmunoassay (Diagnostic Products Corp., Los Angeles, Calif.).
MOPE (80.0 mg) in chloroform was dried down to a lipid film on a round bottom flask at 37° C. in a water bath. The film was resuspended in 10.0 ml of distilled water which had been pH adjusted to pH 9.0 with about 20-50 uL of 0.1N sodium hydroxide (NaOH). Four mg of porcine insulin powder (Eli Lilly, Indianapolis, Ind.) supplied as 25 U/mg, was admixed with the MOPE solution and vortically mixed, creating a 0.8% MOPE insulin gel. The resulting gel was administered to diabetic rats according to the methods of Example 5. […] The methods of the above Example were repeated, dilutions were made to result in 10 ml of each of 0.4%, 0.2%, and 0.1% MOPE, 4.0 mg of insulin being admixed with these MOPE samples as well, the complete results from serum insulin concentrations of each sample plotted together in FIG. 2. […]

CCCCCCCC/C=C\CCCCCCCC(=O)OC[C@@H](O)COP(=O)(O)OCCN [MOPE, 1-oleoyl lysophosphatidylethanolamine]
enhancement of calcitonin through the nasal mucosa [1]: enhancement | lipid concentration at which enhanced drug absorption of insulin occurs ([2]; excipient at about pH 7.0, cloudy fluid): about 0.8% | MOPE concentration that has most efficacy for penetration enhancement of insulin ([2]; pH 9.0, in distilled water): 0.2%
